According to patent US20200079765A1, “SUBSTITUTED HETEROARYL PYRROLONES AND SALTS THEREOF AND USE THEREOF AS HERBICIDAL ACTIVE SUBSTANCES” (Bayer CropScience Aktiengesellschaft, priority 2016, published 2020):

Legend:
Abutilon theophrasti [1] = assay: Herbicidal post-emergence action (Experimental Part 2, C); format: in vivo; conditions: post-emergence (Part 2), application rate 320 g/ha, rated visually after about 3 weeks
Protocol: (§1) Seeds of mono- and dicotyledonous weed plants were placed in plastic pots in sandy loam soil (doubly sown with in each case one species of mono- or dicotyledonous weed plants per pot), covered with soil and cultivated in a greenhouse under controlled growth conditions. 2 to 3 weeks after sowing, the test plants were treated at the one-leaf stage. The compounds of the invention, formulated in the form of wettable powders (WP) or as emulsion concentrates (EC), were applied onto the green parts of the plants as aqueous suspension or emulsion with addition of 0.5% additive at a water application rate of 600 liters per hectare (converted). After the test plants had been kept in the greenhouse under optimum growth conditions for about 3 weeks, the activity of the preparations was rated visually in comparison to untreated controls. For example, 100% activity=the plants have died, 0% activity=like control plants. Tables C1 to C8 below show the effects of selected compounds of the general formula (I) according to Tables I.1 to I.116 on various harmful plants and an application rate corresponding to 1280 g/ha or 320 g/ha, which were obtained by the experimental procedure mentioned above.

Amaranthus retroflexus [2] = assay: as above; format: in vivo; conditions: post-emergence (Part 2), application rate 320 g/ha, rated visually after about 3 weeks
Protocol: as §1

Echinochloa crus-galli [3] = assay: as above; format: in vivo; conditions: post-emergence (Part 2), rated visually after about 3 weeks
Protocol: as §1

Lolium rigidum [4] = assay: as above; format: in vivo; conditions: post-emergence (Part 2), rated visually after about 3 weeks
Protocol: as §1

Matricaria inodora [5] = assay: as above; format: in vivo; conditions: post-emergence (Part 2), application rate 320 g/ha, rated visually after about 3 weeks
Protocol: as §1

Poa annua [6] = assay: as above; format: in vivo; conditions: post-emergence (Part 2), application rate 320 g/ha, rated visually after about 3 weeks
Protocol: as §1

Stellaria media [7] = assay: as above; format: in vivo; conditions: post-emergence (Part 2), application rate 320 g/ha, rated visually after about 3 weeks
Protocol: as §1

Abutilon theophrasti [8] = assay: Herbicidal pre-emergence action (Experimental Part 2, D); format: in vivo; conditions: pre-emergence (Part 2), application rate 320 g/ha, scored visually after about 3 weeks
Description: (§2) Seeds of mono- and dicotyledonous weed plants were placed in plastic pots in sandy loam soil (doubly sown with in each case one species of mono- or dicotyledonous weed plants per pot) and covered with soil. The compounds of the invention, formulated in the form of wettable powders (WP) or as emulsion concentrates (EC), were then applied onto the surface of the covering soil as aqueous suspension or emulsion with addition of 0.5% additive at a water application rate of 600 liters per hectare (converted). After the treatment, the pots are placed in a greenhouse and kept under good growth conditions for the trial plants. After about 3 weeks, the effect of the preparations was scored visually in comparison with untreated controls as percentages. For example, 100% activity=the plants have died, 0% activity=like control plants. Tables D1 to D8 below show the effects of selected compounds of the general formula (I) according to Tables I.1 to I.116 on various harmful plants and an application rate corresponding to 1280 g/ha or 320 g/ha, which were obtained by the experimental procedure mentioned above.

Amaranthus retroflexus [9] = assay: as above; format: in vivo; conditions: pre-emergence (Part 2), application rate 320 g/ha, scored visually after about 3 weeks
Description: as §2

Echinochloa crus-galli [10] = assay: as above; format: in vivo; conditions: pre-emergence (Part 2), application rate 320 g/ha, scored visually after about 3 weeks
Description: as §2

Lolium rigidum [11] = assay: as above; format: in vivo; conditions: pre-emergence (Part 2), scored visually after about 3 weeks
Description: as §2

Matricaria inodora [12] = assay: as above; format: in vivo; conditions: pre-emergence (Part 2), application rate 320 g/ha, scored visually after about 3 weeks
Description: as §2

Poa annua [13] = assay: as above; format: in vivo; conditions: pre-emergence (Part 2), application rate 320 g/ha, scored visually after about 3 weeks
Description: as §2

Setaria viridis [14] = assay: as above; format: in vivo; conditions: pre-emergence (Part 2), scored visually after about 3 weeks
Description: as §2

Stellaria media [15] = assay: as above; format: in vivo; conditions: pre-emergence (Part 2), application rate 320 g/ha, scored visually after about 3 weeks
Description: as §2

photosystem II (PS II) = target: T1, photosystem II (PS II) (Spinacia oleracea, UniProt P69560); assay: Measurement of the PS II activity in thylakoid membranes (DCPIP reduction, Experimental Part 3, Table E1); format: biochemical; conditions: spinach thylakoid membranes
T1 construct: the chloroplasts were osmotically ruptured and the thylakoid membranes were then obtained by centrifugation; from tissue; host or cells: thylakoid membranes from fresh spinach leaves
Protocol: Cooled fresh spinach leaves were comminuted and homogenized in 50 mM phosphate buffer, pH 6.8. 10 mM KCl, 0.34 M sucrose (sucrose buffer) (blender, 1 g of plant material/ml). The homogenate was subsequently filtered through 4 layers of Miracloth and the chloroplasts were isolated by centrifugation, i.e. 10 min of centrifugation at 4400×g (4° C.). The sediment was suspended in 25 ml of sucrose buffer and re-centrifuged for 10 min at 4400×g (4° C.). The sediment was then suspended in 40 ml of 50 mM phosphate buffer, pH 6.8, 10 mM KCl, without sucrose. In this step, the chloroplasts were osmotically ruptured and the thylakoid membranes were then obtained by centrifugation (10 min, 4400×g, 4° C.). The membrane sediment was finally suspended in about 20 ml of 50 mM phosphate buffer, pH 6.8, 10 mM KCl. Following protein determination and activity determination, the membrane suspension was divided into aliquots and frozen in liquid nitrogen. The aliquots were stored at −80° C. Under these conditions, the photosystem II preparation was storage stable for at least three months. The activity determination of photosystem II (PS II) was then carried out using the following test principle: The electron transfer from PS II to an artificial electron acceptor, 2,6-dichlorophenolindophenol (DCPIP), was measured with exposure to light. The concentration of the blue oxidized form of DCPIP was determined spectrophotometrically at wavelength λ=595 nm. […] The activity determination was carried out in microtiter plates (96 cavities) in a reaction volume of 200 μl. Here, 155 μl of dilute membrane suspension were initially charged in 50 mM of phosphate buffer, pH 6.8, 10 mM KCl. Depending on the activity of the PS II preparation, the dilution was adjusted such that the measurement of the decrease in absorption (λ=595 nm) was linear for at least 10 min. In each case 5 μl solution of the test compounds of a concentration of 100 μM in DMSO were added to the enzyme suspension; controls contained 5 μl DMSO; the final concentration of DMSO in the reaction batch was thus 2.5% (v/v); this concentration had no adverse effect on the enzymatic activity. On each microtiter plate, a known PS II inhibitor, for example metribuzin, was used as standard, which allowed the quality of the PS II test to be assessed. The reaction was started by addition of 40 μl DCPIP solution (600 μM in distilled water); the final concentration of DCPIP was 120 μM. Measurement of absorption was carried out over a period of 10 min at 22° C. and with exposure to light. Using metribuzin as comparative substance, the results for the efficacy of the compounds of the general formula (I) at 100 μM are stated in the table below using the following classification: ++++ (inhibition≥90%), +++ (90%>inhibition≥70%), ++ (70%>inhibition≥50%), + (50%>inhibition≥30%).
Effects of selected compounds of the general formula (I) according to the following table E1: […]

Setaria viridis [16] = assay: Herbicidal post-emergence action (Experimental Part 2, C); format: in vivo; conditions: post-emergence (Part 2), application rate 320 g/ha, rated visually after about 3 weeks
Protocol: as §1

Effect (inhibition of PS II activity) (photosystem II (PS II))	SMILES	Abutilon theophrasti, herbicidal activity (Abutilon theophrasti [1]) [%]	Amaranthus retroflexus, herbicidal activity (Amaranthus retroflexus [2]) [%]	Echinochloa crus-galli, herbicidal activity (Echinochloa crus-galli [3]; application rate 320 g/ha) [%]	Lolium rigidum, herbicidal activity (Lolium rigidum [4]; application rate 320 g/ha) [%]	Matricaria inodora, herbicidal activity (Matricaria inodora [5]) [%]	Poa Annua, herbicidal activity (Poa annua [6]) [%]	Stellaria media, herbicidal activity (Stellaria media [7]) [%]	Abutilon theophrasti, herbicidal activity (Abutilon theophrasti [8]) [%]	Amaranthus retroflexus, herbicidal activity (Amaranthus retroflexus [9]) [%]	Echinochloa crus-galli, herbicidal activity (Echinochloa crus-galli [10]) [%]	Lolium rigidum, herbicidal activity (Lolium rigidum [11]; application rate 320 g/ha) [%]	Matricaria inodora, herbicidal activity (Matricaria inodora [12]) [%]	Poa Annua, herbicidal activity (Poa annua [13]) [%]	Setaria viridis, herbicidal activity (Setaria viridis [14]; application rate 320 g/ha) [%]	Stellaria media, herbicidal activity (Stellaria media [15]) [%]	Setaria viridis, herbicidal activity (Setaria viridis [16]) [%]	Echinochloa crus-galli, herbicidal activity (Echinochloa crus-galli [3]; application rate 1280 g/ha) [%]	Lolium rigidum, herbicidal activity (Lolium rigidum [4]; application rate 1280 g/ha) [%]	other results
++++ (inhibition≥90%)	CC1=CC(O)N(c2noc(C(C)(C)C)c2C)C1=O (stereo not drawn) [I.2-177]	100	100	100	90	100	100	100	100	90	100	90	100	100	100	100	–	–	–	–
++++ (inhibition≥90%)	CC1=CC(O)N(c2cc(C(C)(C)C)on2)C1=O (stereo not drawn) [I.2-162, 5-hydroxy-3-methyl-1-(5-tert-butyl-1,2-isoxazol-3-yl)-1,5-dihydro-2H-pyrrol-2-one]	100	100	100	90	100	100	100	100	100	100	90	100	100	100	100	100	–	–	–
++++ (inhibition≥90%)	CC1=CC(O)N(c2cc(C(C)(C)C)no2)C1=O (stereo not drawn) [I.2-290, 5-hydroxy-3-methyl-1-(3-tert-butyl-1,2-isoxazol-5-yl)-1,5-dihydro-2H-pyrrol-2-one]	100	100	–	–	100	100	100	100	100	100	–	100	100	–	100	100	100	100	Lolium rigidum, herbicidal activity (Lolium rigidum [11]; application rate 1280 g/ha): 100%; Setaria viridis, herbicidal activity (Setaria viridis [14]; application rate 1280 g/ha): 100%
–	CCC(=O)OC1C=C(C)C(=O)N1c1cc(C(C)(C)C)no1 (stereo not drawn) [I.6-290]	100	100	–	–	100	100	100	100	100	90	90	100	100	90	100	100	100	90	–
